Measurements taken from patent publication US9695155B2, “Herbicidal substituted pyrimidinyloxy benzene compounds” (E. I. DU PONT DE NEMOURS AND COMPANY, priority 2013, dated 2017).

Tests used:
winter wheat = assay: Test D postemergence; assay type: in vivo, Triticum aestivum; conditions: Triticum aestivum, post-emergence, scale 0 to 100 (0 no effect, 100 complete control), read-out: Plant response rating, Wheat, Winter
How it was run: (§1)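 Values are 0–100 visual control ratings (0 none, 100 complete) given 7–21 days after application. Soil for preemergence was silt loam; postemergence plants stood 2–18 cm tall.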

spring wheat = assay: Test D postemergence; assay type: in vivo, Triticum aestivum; conditions: Triticum aestivum, post-emergence, scale 0 to 100 (0 no effect, 100 complete control), read-out: Plant response rating, Wheat, Spring
How it was run: as §1

field poppy = assay: Test D preemergence; assay type: in vivo, Papaver rhoeas; conditions: Papaver rhoeas, pre-emergence, scale 0-100, read-out: Plant response rating, Field Poppy
How it was run: as §1

windgrass [1] = assay: Test D postemergence; assay type: in vivo, Apera spica-venti; conditions: Apera spica-venti, post-emergence, scale 0 to 100 (0 no effect, 100 complete control), read-out: Plant response rating, Windgrass
How it was run: as §1

wild oat = assay: Test D preemergence; assay type: in vivo, Avena fatua; conditions: Avena fatua, pre-emergence, scale 0-100, read-out: Plant response rating, Oat, Wild
How it was run: as §1

Italian ryegrass [2] = assay: Test D postemergence; assay type: in vivo, Lolium multiflorum; conditions: Lolium multiflorum, post-emergence, scale 0 to 100 (0 no effect, 100 complete control), read-out: Plant response rating, Ryegrass, Italian
How it was run: as §1

windgrass [3] = assay: Test D preemergence; assay type: in vivo, Apera spica-venti; conditions: Apera spica-venti, pre-emergence
How it was run: as §1

field bindweed = assay: Test E postemergence; assay type: in vivo, Convolvulus arvensis; conditions: Convolvulus arvensis, post-emergence, read-out: Plant response rating, Field Bindweed
Text: Seeds of plant species selected from corn (Zea mays), soybean (Glycine max), velvetleaf (Abutilon theophrasti), lambsquarters (Chenopodium album), wild poinsettia (Euphorbia heterophylla), palmer pigweed (Amaranthus palmeri), waterhemp (common waterhemp, Amaranthus rudis), surinam grass (Brachiaria decumbens), large (Lg) crabgrass (Digitaria sanguinalis), Brazilian crabgrass (Digitaria horizontalis), fall panicum (Panicum dichotomiflorum), giant foxtail (Setaria faberii), green foxtail (Setaria viridis), goosegrass (Eleusine indica), johnsongrass (Sorghum halepense), ragweed (common ragweed, Ambrosia elatior), barnyardgrass (Echinochloa crus-galli), sandbur (southern sandbur, Cenchrus echinatus), arrowleaf sida (Sida rhombifolia), Italian ryegrass (Lolium multiflorum), dayflower (Virginia (VA) dayflower, Commelina virginica), field bindweed (Convolvulus arvensis), morningglory (Ipomoea coccinea), nightshade (eastern black nightshade, Solanum ptycanthum), kochia (Kochia scoparia), yellow nutsedge (Cyperus esculentus), cocklebur (common cocklebur, Xanthium strumarium), smartweed (ladysthumb smartweed, and hairy beggarticks (Bidens pilosa), were planted into a silt loam soil and treated preemergence with test chemicals formulated in a non-phytotoxic solvent mixture which included a surfactant.
At the same time, plants from these crop and weed species and also horseweed (Canada horseweed, Conyza canadensis), waterhemp_RES1, (ALS & Triazine resistant common waterhemp, Amaranthus rudis), and waterhemp_RES2, (ALS & HPPD resistant common waterhemp, Amaranthus rudis) were planted in pots containing Redi-Earth® planting medium (Scotts Company, 14111 Scottslawn Road, Marysville, Ohio 43041) comprising spaghnum peat moss, vermiculite, wetting agent and starter nutrients were treated with postemergence applications of test chemicals formulated in the same manner. Plants ranged in height from 2 to 18 cm for postemergence treatments (1- to 4-leaf stage). Treated plants and controls were maintained in a greenhouse for 14 to 21 days, after which time all species were compared to controls and visually evaluated. Plant response ratings, summarized in Table E, are based on a scale of 0 to 100 where 0 is no effect and 100 is complete control. A dash (-) response means no test result.

chickweed = assay: Test D preemergence; assay type: in vivo, Stellaria media; conditions: Stellaria media, pre-emergence, scale 0-100, read-out: Plant response rating, Chickweed
How it was run: as §1

bluegrass = assay: Test D postemergence; assay type: in vivo, Poa annua; conditions: Poa annua, post-emergence, Postemergence, scale 0 to 100 (0 no effect, 100 complete control), read-out: Plant response rating, Bluegrass
How it was run: as §1

blackgrass = assay: Test D postemergence; assay type: in vivo, Alopecurus myosuroides; conditions: Alopecurus myosuroides, post-emergence, Postemergence, scale 0 to 100 (0 no effect, 100 complete control), read-out: Plant response rating, Blackgrass
How it was run: as §1

wild buckwheat = assay: Test D postemergence; assay type: in vivo, Polygonum convolvulus; conditions: Fallopia convolvulus, post-emergence, Postemergence, scale 0 to 100 (0 no effect, 100 complete control), read-out: Plant response rating, Buckwheat, Wild
How it was run: as §1

Italian ryegrass [4] = assay: Test D preemergence; assay type: in vivo, Lolium multiflorum; conditions: Lolium multiflorum, pre-emergence
How it was run: as §1

N#Cc1cccc(Oc2ncc(Br)cn2)c1-n1cc(C(F)(F)F)cn1 [Compound 59, 3-[(5-bromo-2-pyrimidinyl)oxy]-2-[4-(trifluoromethyl)-1H-pyrazol-1-yl]benzonitrile]
plant injury at 31 g/ha (winter wheat; 31 g ai/ha): 10%
plant injury at 62 g/ha (winter wheat; 62 g ai/ha): 15%
plant injury at 125 g/ha (winter wheat; 125 g ai/ha): 20%
plant injury at 250 g/ha (winter wheat; 250 g ai/ha): 20%
plant injury at 31 g/ha (spring wheat; 31 g ai/ha): 10%
plant injury at 62 g/ha (spring wheat; 62 g ai/ha): 15%
plant injury at 125 g/ha (spring wheat; 125 g ai/ha): 20%
plant injury at 250 g/ha (spring wheat; 250 g ai/ha): 25%
pest or weed control at 31 g/ha (field poppy; 31 g ai/ha): 95%
pest or weed control at 62 g/ha (field poppy; 62 g ai/ha): 100%
pest or weed control at 125 g/ha (field poppy; 125 g ai/ha): 100%
pest or weed control at 250 g/ha (field poppy; 250 g ai/ha): 100%
pest or weed control at 31 g/ha (windgrass [1]; 31 g ai/ha): 15%
pest or weed control at 62 g/ha (windgrass [1]; 62 g ai/ha): 25%
pest or weed control at 125 g/ha (windgrass [1]; 125 g ai/ha): 35%
pest or weed control at 250 g/ha (windgrass [1]; 250 g ai/ha): 45%
pest or weed control at 31 g/ha (wild oat; 31 g ai/ha): 0%
pest or weed control at 62 g/ha (wild oat; 62 g ai/ha): 0%
pest or weed control at 125 g/ha (wild oat; 125 g ai/ha): 20%
pest or weed control at 250 g/ha (wild oat; 250 g ai/ha): 55%
pest or weed control at 31 g/ha (Italian ryegrass [2]; 31 g ai/ha): 10%
pest or weed control at 62 g/ha (Italian ryegrass [2]; 62 g ai/ha): 10%
pest or weed control at 125 g/ha (Italian ryegrass [2]; 125 g ai/ha): 40%
pest or weed control at 250 g/ha (Italian ryegrass [2]; 250 g ai/ha): 50%
pest or weed control at 31 g/ha (windgrass [3]; 31 g ai/ha, scale 0 (no effect) to 100 (complete control), read-out: Plant response rating, Windgrass): 70%
pest or weed control at 62 g/ha (windgrass [3]; 62 g ai/ha, scale 0-100, read-out: Plant response rating, Windgrass): 100%
pest or weed control at 125 g/ha (windgrass [3]; 125 g ai/ha, scale 0-100, read-out: Plant response rating, Windgrass): 100%
pest or weed control at 250 g/ha (windgrass [3]; 250 g ai/ha, scale 0-100, read-out: Plant response rating, Windgrass): 100%
pest or weed control at 31 g/ha (field bindweed; Postemergence, 31 g ai/ha, scale 0 to 100): 60%
pest or weed control at 62 g/ha (field bindweed; Postemergence, 62 g ai/ha, scale 0 to 100): 65%
pest or weed control at 125 g/ha (field bindweed; Postemergence, 125 g ai/ha, scale 0 to 100): 70%
pest or weed control at 250 g/ha (field bindweed; Postemergence, 250 g ai/ha, scale 0 to 100): 80%
pest or weed control at 16 g/ha (field bindweed; postemergence, 16 g ai/ha, scale 0 to 100, 0 no effect, 100 complete control): 50%
pest or weed control at 31 g/ha (chickweed; 31 g ai/ha): 100%
pest or weed control at 62 g/ha (chickweed; 62 g ai/ha): 100%
pest or weed control at 125 g/ha (chickweed; 125 g ai/ha): 100%
pest or weed control at 250 g/ha (chickweed; 250 g ai/ha): 95%
pest or weed control at 31 g/ha (bluegrass; 31 g ai/ha): 15%
pest or weed control at 62 g/ha (bluegrass; 62 g ai/ha): 15%
pest or weed control at 125 g/ha (bluegrass; 125 g ai/ha): 20%
pest or weed control at 250 g/ha (bluegrass; 250 g ai/ha): 40%
pest or weed control at 62 g/ha (blackgrass; 62 g ai/ha): 30%
pest or weed control at 31 g/ha (blackgrass; 31 g ai/ha): 25%
pest or weed control at 125 g/ha (blackgrass; 125 g ai/ha): 40%
pest or weed control at 250 g/ha (blackgrass; 250 g ai/ha): 70%
pest or weed control at 31 g/ha (wild buckwheat; 31 g ai/ha): 80%
pest or weed control at 62 g/ha (wild buckwheat; 62 g ai/ha): 100%
pest or weed control at 125 g/ha (wild buckwheat; 125 g ai/ha): 100%
pest or weed control at 250 g/ha (wild buckwheat; 250 g ai/ha): 100%
pest or weed control at 31 g/ha (Italian ryegrass [4]; 31 g ai/ha, scale 0 (no effect) to 100 (complete control), read-out: Plant response rating, Ryegrass, Italian): 0%
pest or weed control at 62 g/ha (Italian ryegrass [4]; 62 g ai/ha, scale 0-100, read-out: Plant response rating, Ryegrass, Italian): 5%
pest or weed control at 125 g/ha (Italian ryegrass [4]; 125 g ai/ha, scale 0-100, read-out: Plant response rating, Ryegrass, Italian): 60%
pest or weed control at 250 g/ha (Italian ryegrass [4]; 250 g ai/ha, scale 0-100, read-out: Plant response rating, Ryegrass, Italian): 70%
